Columns and labels:
laying hens [1] = assay: Thickness of eggshell of laying hens (Test Example 2); type: in vivo
Description: (§1) As test hens, commercially available laying hens of 480 day age were used. The control group fed with a feed not containing any compound of this invention consisted of 100 laying hens, and each test group fed with a feed containing a compound of this invention consisted of 10 laying hens. The test was repeated twice. The test period was 16 weeks from Nov. 17, 1981 to Mar. 8, 1982. The first 4 weeks from the start was a preliminary observation period, during which each group was controlled so as to give the same egg production rate. As the feed, a commercially available feed for laying hens (Cp 16% or above, ME 2,800 kcal/kg or above) was used. From the 5th week, predetermined quantities of test compounds were uniformly added to this feed and the resulting blended feeds were given to test groups. Feeds and water were given ad libitum. Constant lighting was made for 14 hr a day. Egg production rate was daily recorded for each individual hen and egg weight for each test group. Feed intake quantity was obtained by calculating on every other week a difference between quantity fed and quantity left. For examining egg quality, strength of eggshell and thickness of eggshell were measured for all normal eggs laid during a period of the previous day of measurement to 3 P.M. of the measurement day. Strength of eggshell was measured by a FHK eggshell strength tester model FN-597, and thickness of eggshell by a dial thickness gauge.

[2] = Growth of body weight of broilers (Test Example 1); type: in vivo, "A A Fuji" broilers (chicken); conditions: for Body weight at week age 0: week age 0 (before addition); for Body weight at week age 3: week age 3 (start of addition)
Experimental: (§2) To each group consisting of 30 "A A Fuji" broilers (15 male, 15 female), a commercially available early period broiler feed (crumble form, Cp 22%, ME 3,030 kcal/kg) was given from beginning of feeding to 4 week age, and a latter period broiler feed (mash form, Cp 18%, ME 3,030 kcal/kg) was given ad libitum from 4 week age to 10 week age. The test period was from Oct. 10, 1981 through Dec. 20, 1981. Addition of test compounds to the above feeds in predetermined concentrations was conducted from 3 week age through the completion of the test.
(1) Growth of body weight
[…] All broilers were measured and an average body weight was calculated for each group.

laying hens [3] = assay: Strength of eggshell of laying hens (Test Example 2); type: in vivo
Description: as §1

broilers [4] = assay: Abdominal fat deposit of broilers (Test Example 1); type: in vivo, "A A Fuji" broilers (chicken)
Experimental: as §2
(§3) Five broilers at 6 week age, five broilers at 8 week age and ten broilers at 10 week age were taken out from each group and slaughtered. Immediately after slaughtering, they were cooled in water for about 2 hr and the body weight of each slaughtered broiler was measured and subsequently they were stored at 2° C. for about 20 hr. Then, in order to measure abdominal fat, mesentary fat was removed and fat adhered to from gizzard to proventriculus was collected and weighed as the weight of abdominal fat. This weight was divided by body weight to obtain abdominal fat deposit per 100 g of body weight. Further, liver fat was also collected and weighed. A liver under freeze storage was cut into slices in a total quantity of 2 to 3 g. The slices were placed in a cylindrical filter paper and weighed. Then, these slices were dried for 3 hr in a hot air drier kept at 90° C. and subsequently extracted for 17 hr with ethyl ether in a Soxhlet fat extractor. After drying the extract for 3 hr at 60° C. and weighing the residue, crude fat content in liver was calculated.

broilers [5] = assay: Crude fat content in liver of broilers (Test Example 1); type: in vivo, "A A Fuji" broilers (chicken)
Experimental: as §2, §3

LD50 mouse (male) = conditions: in vivo
Description: Examples of the compounds represented by the general formula [1] according to this invention and their toxicities are shown below.

## CC(C)OC(=O)C(C(=O)OC(C)C)=C1SCCS1 [compound 6]
Laying hens [1]; 509th day, 5 ppm in feed
  Eggshell thickness: 0.328 mm
Laying hens [1]; 509th day, 25 ppm in feed
  Eggshell thickness: 0.345 mm
Laying hens [1]; 509th day, 125 ppm in feed
  Eggshell thickness: 0.343 mm
Laying hens [1]; 509th day, 625 ppm in feed
  Eggshell thickness: 0.325 mm
Laying hens [1]; 555th day, 5 ppm in feed
  Eggshell thickness: 0.341 mm
Laying hens [1]; 555th day, 25 ppm in feed
  Eggshell thickness: 0.345 mm
Laying hens [1]; 555th day, 125 ppm in feed
  Eggshell thickness: 0.340 mm
Laying hens [1]; 555th day, 625 ppm in feed
  Eggshell thickness: 0.346 mm
Laying hens [1]; 612th day, 5 ppm in feed
  Eggshell thickness: 0.344 mm
Laying hens [1]; 612th day, 25 ppm in feed
  Eggshell thickness: 0.341 mm
Laying hens [1]; 612th day, 125 ppm in feed
  Eggshell thickness: 0.342 mm
Laying hens [1]; 612th day, 625 ppm in feed
  Eggshell thickness: 0.348 mm
[2]; 100 ppm in feed from 3 week age
  Body weight at week age 0: 41 g
[2]; 200 ppm in feed from 3 week age
  Body weight at week age 0: 41 g
[2]; 400 ppm in feed from 3 week age
  Body weight at week age 0: 41 g
[2]; 800 ppm in feed from 3 week age
  Body weight at week age 0: 41 g
[2]; 1,600 ppm in feed from 3 week age
  Body weight at week age 0: 41 g
[2]; 100 ppm in feed
  Body weight at week age 3: 628 g
  Body weight at week age 4: 978 g
  Body weight at week age 5: 1,326 g
  Body weight at week age 6: 1,672 g
  Body weight at week age 7: 2,602 g
  Body weight at week age 8: 2,492 g
  Body weight at week age 9: 2,880 g
  Body weight at week age 10: 3,107 g
[2]; 200 ppm in feed
  Body weight at week age 3: 623 g
  Body weight at week age 4: 983 g
  Body weight at week age 5: 1,340 g
  Body weight at week age 6: 1,662 g
  Body weight at week age 7: 2,108 g
  Body weight at week age 8: 2,487 g
  Body weight at week age 9: 2,873 g
  Body weight at week age 10: 3,112 g
[2]; 400 ppm in feed
  Body weight at week age 3: 624 g
  Body weight at week age 4: 984 g
  Body weight at week age 5: 1,338 g
  Body weight at week age 6: 1,652 g
  Body weight at week age 7: 2,112 g
  Body weight at week age 8: 2,505 g
  Body weight at week age 9: 2,865 g
  Body weight at week age 10: 3,086 g
[2]; 800 ppm in feed
  Body weight at week age 3: 622 g
  Body weight at week age 4: 981 g
  Body weight at week age 5: 1,332 g
  Body weight at week age 6: 1,657 g
  Body weight at week age 7: 2,063 g
  Body weight at week age 8: 2,501 g
  Body weight at week age 9: 2,858 g
  Body weight at week age 10: 3,024 g
[2]; 1,600 ppm in feed
  Body weight at week age 3: 624 g
  Body weight at week age 4: 980 g
  Body weight at week age 5: 1,328 g
  Body weight at week age 6: 1,663 g
  Body weight at week age 7: 2,102 g
  Body weight at week age 8: 2,483 g
  Body weight at week age 9: 2,864 g
  Body weight at week age 10: 3,033 g
Laying hens [3]; 509th day, 5 ppm in feed
  Eggshell strength: 2.40 kg
Laying hens [3]; 509th day, 25 ppm in feed
  Eggshell strength: 2.47 kg
Laying hens [3]; 509th day, 125 ppm in feed
  Eggshell strength: 2.39 kg
Laying hens [3]; 509th day, 625 ppm in feed
  Eggshell strength: 2.42 kg
Laying hens [3]; 555th day, 5 ppm in feed
  Eggshell strength: 2.75 kg
Laying hens [3]; 555th day, 25 ppm in feed
  Eggshell strength: 2.88 kg
Laying hens [3]; 555th day, 125 ppm in feed
  Eggshell strength: 2.95 kg
Laying hens [3]; 555th day, 625 ppm in feed
  Eggshell strength: 3.01 kg
Laying hens [3]; 612th day, 5 ppm in feed
  Eggshell strength: 2.74 kg
Laying hens [3]; 612th day, 25 ppm in feed
  Eggshell strength: 2.99 kg
Laying hens [3]; 612th day, 125 ppm in feed
  Eggshell strength: 3.11 kg
Laying hens [3]; 612th day, 625 ppm in feed
  Eggshell strength: 3.07 kg
Broilers [4]; 6w, 100 ppm in feed
  Abdominal fat deposit: 3.23 g/100 g
Broilers [4]; 6w, 200 ppm in feed
  Abdominal fat deposit: 3.24 g/100 g
Broilers [4]; 6w, 400 ppm in feed
  Abdominal fat deposit: 3.08 g/100 g
Broilers [4]; 6w, 800 ppm in feed
  Abdominal fat deposit: 3.14 g/100 g
Broilers [4]; 6w, 1,600 ppm in feed
  Abdominal fat deposit: 3.04 g/100 g
Broilers [4]; 8w, 100 ppm in feed
  Abdominal fat deposit: 3.72 g/100 g
Broilers [4]; 8w, 200 ppm in feed
  Abdominal fat deposit: 3.64 g/100 g
Broilers [4]; 8w, 400 ppm in feed
  Abdominal fat deposit: 3.38 g/100 g
Broilers [4]; 8w, 800 ppm in feed
  Abdominal fat deposit: 3.35 g/100 g
Broilers [4]; 8w, 1,600 ppm in feed
  Abdominal fat deposit: 3.32 g/100 g
Broilers [4]; 10w, 100 ppm in feed
  Abdominal fat deposit: 4.18 g/100 g
Broilers [4]; 10w, 200 ppm in feed
  Abdominal fat deposit: 4.03 g/100 g
Broilers [4]; 10w, 400 ppm in feed
  Abdominal fat deposit: 3.97 g/100 g
Broilers [4]; 10w, 800 ppm in feed
  Abdominal fat deposit: 3.85 g/100 g
Broilers [4]; 10w, 1,600 ppm in feed
  Abdominal fat deposit: 3.78 g/100 g
Broilers [5]; 6w, 100 ppm in feed
  Crude fat content in liver: 2.23%
Broilers [5]; 6w, 200 ppm in feed
  Crude fat content in liver: 2.03%
Broilers [5]; 6w, 400 ppm in feed
  Crude fat content in liver: 2.15%
Broilers [5]; 6w, 800 ppm in feed
  Crude fat content in liver: 2.14%
Broilers [5]; 6w, 1,600 ppm in feed
  Crude fat content in liver: 2.08%
Broilers [5]; 8w, 100 ppm in feed
  Crude fat content in liver: 5.51%
Broilers [5]; 8w, 200 ppm in feed
  Crude fat content in liver: 4.97%
Broilers [5]; 8w, 400 ppm in feed
  Crude fat content in liver: 4.53%
Broilers [5]; 8w, 800 ppm in feed
  Crude fat content in liver: 4.26%
Broilers [5]; 8w, 1,600 ppm in feed
  Crude fat content in liver: 4.32%
Broilers [5]; 10w, 100 ppm in feed
  Crude fat content in liver: 5.09%
Broilers [5]; 10w, 200 ppm in feed
  Crude fat content in liver: 4.33%
Broilers [5]; 10w, 400 ppm in feed
  Crude fat content in liver: 4.26%
Broilers [5]; 10w, 800 ppm in feed
  Crude fat content in liver: 4.33%
Broilers [5]; 10w, 1,600 ppm in feed
  Crude fat content in liver: 4.32%
LD50 mouse (male)
  LD50: 1350 mg/kg

Reference: patent publication US4564627A, “Feed composition” (Nihon Nohyaku Co., Ltd., priority 1982, dated 1986)
